Read-outs that look alike come from different tables or passages of the source.
Key:
[1] = biological target: T1, RIOK1 (Homo sapiens, UniProt Q9BRS2); experiment: KINOMEscan; type: binding; details: read-out: Percent Control
T1 construct: purchased Eurofins DiscoverX KINOMEscan (scanMAX 468)

[2] = biological target: T2, AXL (Homo sapiens, UniProt P30530); experiment: KINOMEscan; type: binding; details: read-out: Percent Control
T2 construct: purchased Eurofins DiscoverX KINOMEscan (scanMAX 468)

[3] = biological target: T3, RPS6KA4(Kin.Dom.2-C-terminal) (Homo sapiens, UniProt O75676); experiment: KINOMEscan; type: binding; details: read-out: Percent Control
T3 construct: RPS6KA4(Kin.Dom.2-C-terminal); purchased Eurofins DiscoverX KINOMEscan (scanMAX 468)

[4] = biological target: T4, FLT1 (Homo sapiens, UniProt P17948); experiment: KINOMEscan; type: binding; details: read-out: Percent Control
T4 construct: purchased Eurofins DiscoverX KINOMEscan (scanMAX 468)

[5] = biological target: T5, RIOK3 (Homo sapiens, UniProt O14730); experiment: KINOMEscan; type: binding; details: read-out: Percent Control
T5 construct: purchased Eurofins DiscoverX KINOMEscan (scanMAX 468)

[6] = biological target: T6, CDKL2 (Homo sapiens, UniProt Q92772); experiment: KINOMEscan; type: binding; details: read-out: Percent Control
T6 construct: purchased Eurofins DiscoverX KINOMEscan (scanMAX 468)

[7] = biological target: T7, MTOR (Homo sapiens, UniProt P42345); experiment: KINOMEscan; type: binding; details: read-out: Percent Control
T7 construct: purchased Eurofins DiscoverX KINOMEscan (scanMAX 468)

[8] = biological target: T8, PDGFRA (Homo sapiens, UniProt P16234); experiment: KINOMEscan; type: binding; details: read-out: Percent Control
T8 construct: purchased Eurofins DiscoverX KINOMEscan (scanMAX 468)

[9] = biological target: T9, MET(Y1235D) (Homo sapiens, UniProt P08581, Y1235D); experiment: KINOMEscan; type: binding; details: read-out: Percent Control
T9 construct: purchased Eurofins DiscoverX KINOMEscan (scanMAX 468)

[10] = biological target: T10, PAK4 (Homo sapiens, UniProt O96013); experiment: KINOMEscan; type: binding; details: read-out: Percent Control
T10 construct: purchased Eurofins DiscoverX KINOMEscan (scanMAX 468)

[11] = biological target: T11, MLK2 (Homo sapiens, UniProt Q02779); experiment: KINOMEscan; type: binding; details: read-out: Percent Control
T11 construct: purchased Eurofins DiscoverX KINOMEscan (scanMAX 468)

[12] = biological target: T12, BMPR1B (Homo sapiens, UniProt O00238); experiment: KINOMEscan; type: binding; details: read-out: Percent Control
T12 construct: purchased Eurofins DiscoverX KINOMEscan (scanMAX 468)

[13] = biological target: T13, TAK1 (Homo sapiens, UniProt O43318); experiment: KINOMEscan; type: binding; details: read-out: Percent Control
T13 construct: purchased Eurofins DiscoverX KINOMEscan (scanMAX 468)

[14] = biological target: T14, Hs_CDK9/CyclinT (Homo sapiens, UniProt P50750); design: method as in ref 13 (a number printed in a supplementary file, which may have a reference list of its own: not looked up in the article's list); details: DB18, cited from earlier work
T14 construct: host or cells: Sf9 insect cells (baculovirus)
T14 sequence (P50750 whole entry): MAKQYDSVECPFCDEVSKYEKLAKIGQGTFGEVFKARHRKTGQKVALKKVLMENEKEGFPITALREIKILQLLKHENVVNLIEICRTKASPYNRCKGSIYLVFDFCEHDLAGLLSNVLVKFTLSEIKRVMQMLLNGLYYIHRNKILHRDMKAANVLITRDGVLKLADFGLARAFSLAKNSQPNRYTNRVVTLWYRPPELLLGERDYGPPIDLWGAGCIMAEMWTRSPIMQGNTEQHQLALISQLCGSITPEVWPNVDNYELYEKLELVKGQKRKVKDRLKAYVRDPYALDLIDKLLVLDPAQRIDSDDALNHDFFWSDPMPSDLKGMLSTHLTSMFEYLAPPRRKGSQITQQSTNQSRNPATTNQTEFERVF
T14 sequence (O60563 whole entry partner): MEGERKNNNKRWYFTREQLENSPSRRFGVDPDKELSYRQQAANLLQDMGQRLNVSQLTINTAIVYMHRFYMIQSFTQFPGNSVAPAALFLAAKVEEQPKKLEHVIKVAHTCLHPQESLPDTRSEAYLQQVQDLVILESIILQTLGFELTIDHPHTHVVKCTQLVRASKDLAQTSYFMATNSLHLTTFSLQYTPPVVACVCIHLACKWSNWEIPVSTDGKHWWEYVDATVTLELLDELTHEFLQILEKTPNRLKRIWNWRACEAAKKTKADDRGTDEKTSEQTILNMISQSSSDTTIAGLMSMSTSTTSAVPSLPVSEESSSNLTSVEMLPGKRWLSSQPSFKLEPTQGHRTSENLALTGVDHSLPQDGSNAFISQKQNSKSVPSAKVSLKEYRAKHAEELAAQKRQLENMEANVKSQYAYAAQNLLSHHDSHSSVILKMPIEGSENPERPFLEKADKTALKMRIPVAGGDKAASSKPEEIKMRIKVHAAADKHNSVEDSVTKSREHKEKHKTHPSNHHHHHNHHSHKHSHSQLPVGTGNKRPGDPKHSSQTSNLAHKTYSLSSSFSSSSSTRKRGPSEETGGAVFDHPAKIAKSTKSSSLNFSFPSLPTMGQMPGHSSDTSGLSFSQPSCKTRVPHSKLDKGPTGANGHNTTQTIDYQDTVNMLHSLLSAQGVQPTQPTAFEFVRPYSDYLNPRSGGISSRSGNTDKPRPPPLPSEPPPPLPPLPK

[15] = biological target: T15, MLK1 (Homo sapiens, UniProt P80192); experiment: KINOMEscan; type: binding; details: read-out: Percent Control
T15 construct: purchased Eurofins DiscoverX KINOMEscan (scanMAX 468)

[16] = biological target: T16, ABL1(Y253F)-phosphorylated (Homo sapiens, UniProt P00519, Y253F); experiment: KINOMEscan; type: binding; details: read-out: Percent Control
T16 construct: purchased Eurofins DiscoverX KINOMEscan (scanMAX 468)

[17] = biological target: T17, PRKD2 (Homo sapiens, UniProt Q9BZL6); experiment: KINOMEscan; type: binding; details: read-out: Percent Control
T17 construct: purchased Eurofins DiscoverX KINOMEscan (scanMAX 468)
T17 sequence (Q9BZL6 whole entry): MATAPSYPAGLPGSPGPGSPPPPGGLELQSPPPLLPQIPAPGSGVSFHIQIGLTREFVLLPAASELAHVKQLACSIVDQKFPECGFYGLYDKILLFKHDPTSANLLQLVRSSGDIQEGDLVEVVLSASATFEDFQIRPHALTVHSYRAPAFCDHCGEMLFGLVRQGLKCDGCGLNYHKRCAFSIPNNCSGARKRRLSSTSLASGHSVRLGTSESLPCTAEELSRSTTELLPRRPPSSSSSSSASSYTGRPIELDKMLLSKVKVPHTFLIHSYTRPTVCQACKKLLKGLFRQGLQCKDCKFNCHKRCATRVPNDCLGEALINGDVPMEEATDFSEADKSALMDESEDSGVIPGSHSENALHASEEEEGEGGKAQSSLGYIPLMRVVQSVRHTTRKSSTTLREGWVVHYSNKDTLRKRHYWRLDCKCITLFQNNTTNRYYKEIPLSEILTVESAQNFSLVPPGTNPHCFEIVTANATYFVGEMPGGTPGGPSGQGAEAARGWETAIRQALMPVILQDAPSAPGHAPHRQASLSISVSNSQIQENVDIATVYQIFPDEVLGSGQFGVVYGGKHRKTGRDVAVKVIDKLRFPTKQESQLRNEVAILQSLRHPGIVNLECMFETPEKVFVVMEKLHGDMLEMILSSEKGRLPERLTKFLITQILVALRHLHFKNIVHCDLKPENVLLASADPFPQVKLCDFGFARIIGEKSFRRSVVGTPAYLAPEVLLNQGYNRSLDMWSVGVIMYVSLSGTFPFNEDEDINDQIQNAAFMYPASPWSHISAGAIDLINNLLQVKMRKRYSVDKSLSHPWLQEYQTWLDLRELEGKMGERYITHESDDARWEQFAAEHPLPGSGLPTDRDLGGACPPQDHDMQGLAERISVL

[18] = biological target: T18, TLK2 (Homo sapiens, UniProt Q86UE8); experiment: KINOMEscan; type: binding; details: read-out: Percent Control
T18 construct: purchased Eurofins DiscoverX KINOMEscan (scanMAX 468)
T18 sequence (Q86UE8 whole entry): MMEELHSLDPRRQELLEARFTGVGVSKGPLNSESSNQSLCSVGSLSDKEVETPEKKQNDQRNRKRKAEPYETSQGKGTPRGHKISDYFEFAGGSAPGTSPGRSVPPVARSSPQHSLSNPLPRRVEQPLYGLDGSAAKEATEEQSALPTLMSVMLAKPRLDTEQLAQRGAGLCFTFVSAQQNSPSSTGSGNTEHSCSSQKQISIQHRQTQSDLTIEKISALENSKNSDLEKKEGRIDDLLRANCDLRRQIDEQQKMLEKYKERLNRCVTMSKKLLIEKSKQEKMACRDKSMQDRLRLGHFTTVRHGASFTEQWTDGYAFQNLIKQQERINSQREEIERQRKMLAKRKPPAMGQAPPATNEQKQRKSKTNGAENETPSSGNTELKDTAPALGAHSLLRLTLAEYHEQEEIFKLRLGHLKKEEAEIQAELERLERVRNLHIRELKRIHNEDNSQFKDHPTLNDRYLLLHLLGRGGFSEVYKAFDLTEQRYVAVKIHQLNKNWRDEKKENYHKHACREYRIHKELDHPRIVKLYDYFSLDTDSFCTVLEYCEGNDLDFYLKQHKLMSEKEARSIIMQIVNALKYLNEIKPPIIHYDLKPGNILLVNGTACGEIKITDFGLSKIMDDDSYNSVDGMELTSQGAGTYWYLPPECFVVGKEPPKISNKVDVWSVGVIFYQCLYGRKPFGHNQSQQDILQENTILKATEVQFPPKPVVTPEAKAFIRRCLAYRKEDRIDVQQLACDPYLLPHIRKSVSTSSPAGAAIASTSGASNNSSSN

[19] = biological target: T19, RSK3(Kin.Dom.2-C-terminal) (Homo sapiens, UniProt Q15349); experiment: KINOMEscan; type: binding; details: read-out: Percent Control
T19 construct: RSK3(Kin.Dom.2-C-terminal); purchased Eurofins DiscoverX KINOMEscan (scanMAX 468)

[20] = biological target: T20, PRKR (Homo sapiens, UniProt P19525); experiment: KINOMEscan; type: binding; details: read-out: Percent Control
T20 construct: purchased Eurofins DiscoverX KINOMEscan (scanMAX 468)

[21] = biological target: T21, ABL1(Q252H)-phosphorylated (Homo sapiens, UniProt P00519, Q252H); experiment: KINOMEscan; type: binding; details: read-out: Percent Control
T21 construct: purchased Eurofins DiscoverX KINOMEscan (scanMAX 468)

[22] = biological target: T22, STK39 (Homo sapiens, UniProt Q9UEW8); experiment: KINOMEscan; type: binding; details: read-out: Percent Control
T22 construct: purchased Eurofins DiscoverX KINOMEscan (scanMAX 468)

[23] = biological target: T23, BRSK2 (Homo sapiens, UniProt Q8IWQ3); experiment: KINOMEscan; type: binding; details: read-out: Percent Control
T23 construct: purchased Eurofins DiscoverX KINOMEscan (scanMAX 468)

[24] = biological target: T24, SIK (Homo sapiens, UniProt P57059); experiment: KINOMEscan; type: binding; details: read-out: Percent Control
T24 construct: purchased Eurofins DiscoverX KINOMEscan (scanMAX 468)

[25] = biological target: T25, RET(V804L) (Homo sapiens, UniProt P07949, V804L); experiment: KINOMEscan; type: binding; details: read-out: Percent Control
T25 construct: purchased Eurofins DiscoverX KINOMEscan (scanMAX 468)

[26] = biological target: T26, AKT3 (Homo sapiens, UniProt Q9Y243); experiment: KINOMEscan; type: binding; details: read-out: Percent Control
T26 construct: purchased Eurofins DiscoverX KINOMEscan (scanMAX 468)

[27] = biological target: T27, CDK4 (Homo sapiens, UniProt P11802); experiment: KINOMEscan; type: binding; details: read-out: Percent Control
T27 construct: purchased Eurofins DiscoverX KINOMEscan (scanMAX 468)
T27 sequence (P11802 whole entry): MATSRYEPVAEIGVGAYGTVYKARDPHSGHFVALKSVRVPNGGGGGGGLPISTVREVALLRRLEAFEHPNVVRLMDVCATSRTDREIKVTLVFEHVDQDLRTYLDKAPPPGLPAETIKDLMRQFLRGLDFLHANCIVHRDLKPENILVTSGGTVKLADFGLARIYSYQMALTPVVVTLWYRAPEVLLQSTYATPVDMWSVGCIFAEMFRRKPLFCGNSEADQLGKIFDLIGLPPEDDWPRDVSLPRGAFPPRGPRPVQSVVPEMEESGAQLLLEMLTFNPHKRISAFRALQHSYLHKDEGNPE

[28] = biological target: T28, HIPK2 (Homo sapiens, UniProt Q9H2X6); experiment: KINOMEscan; type: binding; details: read-out: Percent Control
T28 construct: purchased Eurofins DiscoverX KINOMEscan (scanMAX 468)

[29] = biological target: T29, ERK1 (Homo sapiens, UniProt P27361); experiment: KINOMEscan; type: binding; details: read-out: Percent Control
T29 construct: purchased Eurofins DiscoverX KINOMEscan (scanMAX 468)

[30] = biological target: T30, PRKG1 (Homo sapiens, UniProt Q13976); experiment: KINOMEscan; type: binding; details: read-out: Percent Control
T30 construct: purchased Eurofins DiscoverX KINOMEscan (scanMAX 468)
T30 sequence (Q13976 whole entry): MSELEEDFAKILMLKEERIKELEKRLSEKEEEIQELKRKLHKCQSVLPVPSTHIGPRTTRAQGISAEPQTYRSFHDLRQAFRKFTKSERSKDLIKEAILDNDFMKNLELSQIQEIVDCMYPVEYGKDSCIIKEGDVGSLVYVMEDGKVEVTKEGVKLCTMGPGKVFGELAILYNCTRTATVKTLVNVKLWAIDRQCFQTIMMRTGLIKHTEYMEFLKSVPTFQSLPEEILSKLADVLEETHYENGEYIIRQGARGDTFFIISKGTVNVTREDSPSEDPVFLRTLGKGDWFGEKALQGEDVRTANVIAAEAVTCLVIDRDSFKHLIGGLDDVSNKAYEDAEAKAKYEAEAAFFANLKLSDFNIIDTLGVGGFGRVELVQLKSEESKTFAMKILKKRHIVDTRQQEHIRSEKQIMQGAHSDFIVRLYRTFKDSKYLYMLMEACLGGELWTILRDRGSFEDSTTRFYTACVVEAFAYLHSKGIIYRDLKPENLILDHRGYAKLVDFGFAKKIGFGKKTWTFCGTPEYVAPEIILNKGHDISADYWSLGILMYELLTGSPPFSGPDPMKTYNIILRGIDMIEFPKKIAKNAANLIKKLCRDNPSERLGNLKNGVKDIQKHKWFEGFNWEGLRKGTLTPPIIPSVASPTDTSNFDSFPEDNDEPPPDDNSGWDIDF

[31] = biological target: T31, LKB1 (Homo sapiens, UniProt Q15831); experiment: KINOMEscan; type: binding; details: read-out: Percent Control
T31 construct: purchased Eurofins DiscoverX KINOMEscan (scanMAX 468)
T31 sequence (Q15831 whole entry): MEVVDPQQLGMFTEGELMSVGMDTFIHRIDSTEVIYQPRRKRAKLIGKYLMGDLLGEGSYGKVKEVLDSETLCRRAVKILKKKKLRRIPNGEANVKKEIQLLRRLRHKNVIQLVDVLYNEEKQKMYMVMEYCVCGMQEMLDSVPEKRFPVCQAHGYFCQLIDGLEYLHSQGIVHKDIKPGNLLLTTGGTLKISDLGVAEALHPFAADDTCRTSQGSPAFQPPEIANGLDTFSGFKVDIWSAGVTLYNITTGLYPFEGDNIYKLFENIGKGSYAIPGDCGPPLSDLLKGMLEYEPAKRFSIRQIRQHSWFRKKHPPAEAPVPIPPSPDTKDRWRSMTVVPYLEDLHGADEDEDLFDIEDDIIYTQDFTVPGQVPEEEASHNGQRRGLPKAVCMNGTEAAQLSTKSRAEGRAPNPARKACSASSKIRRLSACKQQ

[32] = biological target: T32, CSNK1G2 (Homo sapiens, UniProt P78368); experiment: KINOMEscan; type: binding; details: read-out: Percent Control
T32 construct: purchased Eurofins DiscoverX KINOMEscan (scanMAX 468)
T32 sequence (P78368 whole entry): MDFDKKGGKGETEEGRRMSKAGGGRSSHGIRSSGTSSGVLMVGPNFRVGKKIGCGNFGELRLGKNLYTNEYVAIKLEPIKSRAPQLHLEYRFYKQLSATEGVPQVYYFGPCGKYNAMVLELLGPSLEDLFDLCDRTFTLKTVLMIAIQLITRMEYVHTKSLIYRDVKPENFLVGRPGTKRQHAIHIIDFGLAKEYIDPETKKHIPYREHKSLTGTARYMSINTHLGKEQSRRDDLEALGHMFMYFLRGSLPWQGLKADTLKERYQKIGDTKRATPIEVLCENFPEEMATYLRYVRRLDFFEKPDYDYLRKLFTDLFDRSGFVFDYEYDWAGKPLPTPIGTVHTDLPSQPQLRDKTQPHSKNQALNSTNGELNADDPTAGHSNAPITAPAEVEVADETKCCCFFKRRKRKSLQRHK

[33] = biological target: T33, CDK4-cyclinD3 (Homo sapiens, UniProt P11802); experiment: KINOMEscan; type: binding; details: read-out: Percent Control
T33 construct: purchased Eurofins DiscoverX KINOMEscan (scanMAX 468)
T33 sequence (P11802 whole entry): as the sequence (P11802 whole entry) above
T33 sequence (P30281 whole entry partner): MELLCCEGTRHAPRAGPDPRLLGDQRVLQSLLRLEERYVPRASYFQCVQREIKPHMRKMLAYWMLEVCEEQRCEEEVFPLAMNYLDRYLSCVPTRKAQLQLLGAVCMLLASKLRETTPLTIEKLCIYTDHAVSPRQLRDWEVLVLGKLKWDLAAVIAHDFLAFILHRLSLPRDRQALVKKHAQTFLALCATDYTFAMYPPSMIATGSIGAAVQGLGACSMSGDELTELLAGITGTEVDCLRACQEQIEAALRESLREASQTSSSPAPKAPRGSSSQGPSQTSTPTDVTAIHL

[34] = biological target: T34, TIE2 (Homo sapiens, UniProt Q02763); experiment: KINOMEscan; type: binding; details: read-out: Percent Control
T34 construct: purchased Eurofins DiscoverX KINOMEscan (scanMAX 468)

[35] = biological target: T35, FLT4 (Homo sapiens, UniProt P35916); experiment: KINOMEscan; type: binding; details: read-out: Percent Control
T35 construct: purchased Eurofins DiscoverX KINOMEscan (scanMAX 468)

[36] = biological target: T36, QSK (Homo sapiens, UniProt Q9Y2K2); experiment: KINOMEscan; type: binding; details: read-out: Percent Control
T36 construct: purchased Eurofins DiscoverX KINOMEscan (scanMAX 468)

[37] = biological target: T37, SRMS (Homo sapiens, UniProt Q9H3Y6); experiment: KINOMEscan; type: binding; details: read-out: Percent Control
T37 construct: purchased Eurofins DiscoverX KINOMEscan (scanMAX 468)

[38] = biological target: T38, TBK1 (Homo sapiens, UniProt Q9UHD2); experiment: KINOMEscan; type: binding; details: read-out: Percent Control
T38 construct: purchased Eurofins DiscoverX KINOMEscan (scanMAX 468)

[39] = biological target: T39, SRC (Homo sapiens, UniProt P12931); experiment: KINOMEscan; type: binding; details: read-out: Percent Control
T39 construct: purchased Eurofins DiscoverX KINOMEscan (scanMAX 468)

[40] = biological target: T40, ERN1 (Homo sapiens, UniProt O75460); experiment: KINOMEscan; type: binding; details: read-out: Percent Control
T40 construct: purchased Eurofins DiscoverX KINOMEscan (scanMAX 468)

[41] = biological target: T41, NEK4 (Homo sapiens, UniProt P51957); experiment: KINOMEscan; type: binding; details: read-out: Percent Control
T41 construct: purchased Eurofins DiscoverX KINOMEscan (scanMAX 468)

SMILES: Cc1ccc(-n2cc(COc3cccc4cnc(Nc5cccc(Cl)c5)nc34)nn2)c([N+](=O)[O-])c1 [DB18]
- remaining binding at 1 µM [1]: 100%
- remaining binding at 1 µM [2]: 87%
- remaining binding at 1 µM [3]: 100%
- remaining binding at 1 µM [4]: 100%
- remaining binding at 1 µM [5]: 100%
- remaining binding at 1 µM [6]: 97%
- remaining binding at 1 µM [7]: 55%
- remaining binding at 1 µM [8]: 100%
- remaining binding at 1 µM [9]: 100%
- remaining binding at 1 µM [10]: 100%
- remaining binding at 1 µM [11]: 100%
- remaining binding at 1 µM [12]: 96%
- remaining binding at 1 µM [13]: 100%
- % of residual activity Hs_CDK9/CyclinT ([14]; 1 µM): 90%
- % of residual activity Hs_CDK9/CyclinT ([14]; 10 µM): 54%
- remaining binding at 1 µM [15]: 100%
- remaining binding at 1 µM [16]: 97%
- remaining binding at 1 µM [17]: 100%
- remaining binding at 1 µM [18]: 100%
- remaining binding at 1 µM [19]: 100%
- remaining binding at 1 µM [20]: 97%
- remaining binding at 1 µM [21]: 100%
- remaining binding at 1 µM [22]: 97%
- remaining binding at 1 µM [23]: 97%
- remaining binding at 1 µM [24]: 95%
- remaining binding at 1 µM [25]: 100%
- remaining binding at 1 µM [26]: 100%
- remaining binding at 1 µM [27]: 100%
- remaining binding at 1 µM [28]: 33%
- remaining binding at 1 µM [29]: 100%
- remaining binding at 1 µM [30]: 100%
- remaining binding at 1 µM [31]: 100%
- remaining binding at 1 µM [32]: 90%
- remaining binding at 1 µM [33]: 100%
- remaining binding at 1 µM [34]: 100%
- remaining binding at 1 µM [35]: 100%
- remaining binding at 1 µM [36]: 96%
- remaining binding at 1 µM [37]: 98%
- remaining binding at 1 µM [38]: 91%
- remaining binding at 1 µM [39]: 100%
- remaining binding at 1 µM [40]: 94%
- remaining binding at 1 µM [41]: 99%

— publication PMC9571063 (Molecules, 2022)
